Consider five compounds from patent US9441006B2, “Polymorph of 2-[4-[(methylamino)carbonyl]-1H-pyrazol-1-yl]adenosine” (Farmak, a.s., priority 2013, dated 2016).

The conditions of data set [1]: background art, WO 2008/143667, cited from earlier work.
The nature of data set [2]: Dissolution rate in water (Lasentec FBRM particle size distribution measurement). The format is physicochemical. As to conditions: 165 mg in 500 ml water, identical conditions, FIG. 4. On the procedure:
Equal amounts of both polymorphs (165 mg) were dissolved in the same amounts of water (500 ml) under identical conditions (dissolving regime, stirrer revolutions, etc.). It is obvious that the dissolution rate of polymorph E is approximately twofold. Polymorph E is completely dissolved within about 45 minutes, whereas the same amount of polymorph A is, under same conditions, dissolved after about 90 minutes.

Data set [3] in a line: Solubility of polymorph E in water in comparison with polymorph A. Particulars: at different temperatures. The format is physicochemical.
For data set [4] the following is noted: all known polymorphic forms; cited from earlier work.

Molecules are shown by their SMILES. Like-named read-outs stand apart in the source and are kept apart here.

As to `CNC(=O)c1cnn(-c2nc(N)c3ncn([C@@H]4O[C@H](CO)[C@@H](O)[C@H]4O)c3n2)c1` [Polymorph C, 2-[4-[(methylamino)carbonyl]-1H-pyrazol-1-yl]adenosine], the “stability of the polymorph” value in data set [1] is “converted to unstable forms by heating”.
Turning to `CNC(=O)c1cnn(-c2nc(N)c3ncn([C@@H]4O[C@H](CO)[C@@H](O)[C@H]4O)c3n2)c1` [amorphous form, 2-[4-[(methylamino)carbonyl]-1H-pyrazol-1-yl]adenosine], the “stability of the polymorph” value in data set [1] is “unstable”.
As to `CNC(=O)c1cnn(-c2nc(N)c3ncn([C@@H]4O[C@H](CO)[C@@H](O)[C@H]4O)c3n2)c1` [polymorph A, 2-[4-[(methylamino)carbonyl]-1H-pyrazol-1-yl]adenosine monohydrate], the “stability of the polymorph” value in data set [1] (monohydrate) is reported as “relatively stable”. Moreover, the “time to complete dissolution in water” value in data set [2] (monohydrate) is “about 90 minutes”.
Regarding `CNC(=O)c1cnn(-c2nc(N)c3ncn([C@@H]4O[C@H](CO)[C@@H](O)[C@H]4O)c3n2)c1` [polymorph E, 2-[4-[(methylamino)carbonyl]-1H-pyrazol-1-yl]adenosine], in data set [2], the “dissolution rate in water relative to polymorph A” value is “approximately twofold” and the “time to complete dissolution in water” value is listed as “about 45 minutes”. Besides, the solubility in water entry in data set [3] is “practically the same”.
Consider `CNC(=O)c1cnn(-c2nc(N)c3ncn([C@@H]4O[C@H](CO)[C@@H](O)[C@H]4O)c3n2)c1` [regadenoson, 2-[4-[(Methylamino)carbonyl]-1H-pyrazol-1-yl]adenosine], for which, in data set [4], the water solubility entry was “poor water solubility”.
